In ChEMBL document CHEMBL5725219, “Compounds and methods for skin repair” (2017):

What was measured:
[1] = biological target: Prostaglandin E2 receptor EP2 subtype (Homo sapiens, UniProt P43116); assay: (§1) FLIPR Assay: Cells were seeded at a density of 5×10^4 cells per well in Biocoat® Poly-D-lysine-coated black-wall, clear-bottom 96-well plates (Becton-Dickinson) and allowed to attach overnight in an incubator at 37° C. Cells were then washed two times with HBSS-HEPES buffer (Hanks Balanced Salt Solution without bicarbonate and phenol red, 20 mM HEPES, pH 7.4) using a Denley Cellwash plate washer (Labsystems). After 45 minutes of dye-loading in the dark, using the calcium-sensitive dye Fluo-4 AM at a final concentration of […], plates were washed four times with HBSS-HEPES buffer to remove excess dye leaving […] in each well. Plates were re-equilibrated to 37° C. for a few minutes.Cells were excited with an Argon laser at 488 nm, and emission was measured through a 510-570 nm bandwidth emission filter (FLIPR™, Molecular Devices, Sunnyvale, Calif.). Drug solution was added in a 50 μl volume to each well to give the desired final concentration. The peak increase in fluorescence intensity was recorded for each well. On each plate, four wells each served as negative (HBSS-HEPES buffer) and positive controls (standard agonists: BW245C (hDP); PGE2 (hEP1; hEP2/Gqs5; hEP3A/Gqi5; hEP4/Gqs5); PGF2a (hFP); carbacyclin (hIP); U-46619 (hTP), depending on receptor). The peak fluorescence change in each drug-containing well was then expressed relative to the controls.
Sequence of Prostaglandin E2 receptor EP2 subtype (P43116 whole entry): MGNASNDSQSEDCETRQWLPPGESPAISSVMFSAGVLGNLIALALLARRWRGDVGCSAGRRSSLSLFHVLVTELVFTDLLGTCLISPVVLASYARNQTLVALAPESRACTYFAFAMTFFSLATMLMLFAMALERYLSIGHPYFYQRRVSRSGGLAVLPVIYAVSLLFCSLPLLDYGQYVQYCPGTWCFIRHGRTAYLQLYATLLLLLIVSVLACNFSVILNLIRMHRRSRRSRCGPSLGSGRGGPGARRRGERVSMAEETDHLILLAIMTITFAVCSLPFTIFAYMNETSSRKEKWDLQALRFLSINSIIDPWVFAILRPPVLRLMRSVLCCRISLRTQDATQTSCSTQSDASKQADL

[2] = biological target: T1, Prostaglandin E2 receptor EP4 subtype (Homo sapiens, UniProt P35408); assay: as §1
T1 sequence (P35408 whole entry): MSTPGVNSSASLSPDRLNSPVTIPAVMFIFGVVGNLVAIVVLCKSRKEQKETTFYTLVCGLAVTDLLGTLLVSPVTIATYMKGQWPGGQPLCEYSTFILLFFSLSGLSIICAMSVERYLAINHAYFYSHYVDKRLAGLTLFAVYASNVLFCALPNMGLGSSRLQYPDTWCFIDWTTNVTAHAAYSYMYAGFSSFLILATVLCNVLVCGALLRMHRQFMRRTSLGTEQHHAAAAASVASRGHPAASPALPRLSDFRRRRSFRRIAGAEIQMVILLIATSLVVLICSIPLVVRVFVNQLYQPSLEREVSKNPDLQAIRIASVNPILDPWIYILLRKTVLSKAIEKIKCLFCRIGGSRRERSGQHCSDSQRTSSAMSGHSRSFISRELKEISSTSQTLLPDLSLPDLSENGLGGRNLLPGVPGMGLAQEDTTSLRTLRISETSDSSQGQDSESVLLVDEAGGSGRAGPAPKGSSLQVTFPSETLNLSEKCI

[3] = biological target: T1, Prostaglandin E2 receptor EP4 subtype; assay: Radioligand Binding Assay: HEK-293 cells stably expressing the human or feline FP receptor, or EP1, EP2, or EP4 receptors were washed with TME buffer, scraped from the bottom of the flasks, and homogenized for 30 sec using a Brinkman PT 10/35 polytron. TME buffer was added to achieve a final 40 ml volume in the centrifuge tubes (the composition of TME is 100 mM TRIS base, 20 mM MgCl2, […]; 10N HCl is added to achieve a pH of 7.4).The cell homogenate was centrifuged at 19000 r.p.m. for 20 min at 4° C. using a Beckman Ti-60 rotor. The resultant pellet was resuspended in TME buffer to give a final 1 mg/ml protein concentration, as determined by Biorad assay. Radioligand binding competition assays vs. [3H-]17-phenyl PGF2a (5 nM) were performed in a 100 μl volume for 60 min. Binding reactions were started by adding plasma membrane fraction. The reaction was terminated by the addition of 4 ml ice-cold TRIS-HCl buffer and rapid filtration through glass fiber GF/B filters using a Brandel cell harvester. The filters were washed 3 times with ice-cold buffer and oven dried for one hour.[3H] PGE2 (specific activity 180 Ci mmol) was used as the radioligand for EP receptors. [3H] 17-phenyl PGF2a was employed for FP receptor binding studies. Binding studies employing EP1, EP2, EP4 and FP receptors were performed in duplicate in at least three separate experiments. A 200 μl assay volume was used. […]

Row | Compound | EC50 [1] [nM] | Ki [1] [nM] | Ki [2] [nM] | EC50 [2] [nM] | Ki [3] [nM]
1 | COc1cc(OC)cc(C(=O)N2CCc3cccc(CCc4ccc(C(=O)O)cc4)c32)c1 | 183 | 821 | 4860 |  | 
2 | COc1cc(CN2CCc3cc(F)cc(CCc4ccc(C(=O)O)cc4)c32)cc(OC)c1 |  | 14 | 2 | 2 | 
3 | COc1cccc(CN2CCc3cccc(CCc4ccc(C(=O)O)cc4)c32)c1 |  | 23 | 123 | 178 | 
4 | O=C(O)c1ccc(CCc2cccc3c2N(CCc2ccccc2)CC3)cc1 |  | 202 | 1090 | 1580 | 
5 | COc1cccc(CCN2CCc3cccc(CCc4ccc(C(=O)O)cc4)c32)c1 |  | 41 | 373 | 1260 | 
6 | COc1cccc(S(=O)(=O)N2CCc3cccc(CCc4ccc(C(=O)O)cc4)c32)c1 |  | 571 | > 10000 | > 10000 | 
7 | COc1cccc(CN2Cc3cccc(CCc4ccc(C(=O)O)cc4)c3C2)c1 |  | 6880 | 9560 | > 10000 | 
8 | COc1cc(CO)cc(S(=O)(=O)N2CCc3cccc(CCc4ccc(C(=O)O)cc4)c32)c1 |  |  |  | > 10000 | 
9 | COc1cccc(Cn2ccc3cccc(CCc4ccc(C(=O)O)cc4)c32)c1 |  | 259 | 1680 | 1620 | 
10 | O=C(O)c1ccc(CCc2cccc3c2N(Cc2ccc(F)cc2)CC3)cc1 | 29 | 14 | 616 | 450 | 
11 | O=C(O)c1ccc(CCc2cccc3c2N(Cc2cc(F)cc(F)c2)CC3)cc1 | 12 | 12 | 412 | 205 | 
12 | O=C(O)c1ccc(CCc2cccc3c2N(Cc2cc(C(F)(F)F)cc(C(F)(F)F)c2)CC3)cc1 | 11 | 0.3 | 1200 |  | 
13 | COc1cccc(CN2CCc3cccc(CCc4ccc(C(=O)O)s4)c32)c1 |  | 50 | 714 |  | 
14 | COc1cccc(CC(=O)N2CCc3cccc(CCc4ccc(C(=O)O)cc4)c32)c1 |  | > 10000 | 449 | > 10000 | 
15 | O=C(O)c1ccc(CCc2cccc3c2N(Cc2cccc(C(F)(F)F)c2)CC3)cc1 | 15 | 7 | 424 | 187 | 
16 | COc1cc(CO)cc(CN2CCc3cccc(CCc4ccc(C(=O)O)s4)c32)c1 |  |  |  |  | 154
17 | O=C(O)c1ccc(CCc2cccc3c2N(Cc2cccc(F)c2)CC3)cc1 | 35 | 38 | 897 | 123 | 
18 | COc1cc(OC)cc(N2Cc3cccc(CCc4ccc(C(=O)O)cc4)c3C2)c1 |  |  | 3900 |  | 
19 | COc1cccc(CCN2Cc3cccc(CCc4ccc(C(=O)O)cc4)c3C2)c1 |  | 1130 | > 10000 | > 10000 | 
